From paper PMC9268166, “Modeling of Anticancer Sulfonamide Derivatives Lipophilicity by Chemometric and Quantitative Structure-Retention Relationships Approaches” (Molecules, 2022)

Experiments:
[1] = IAM chromatography (IAM-HPLC), IAM.PC.DD2 column; type: physicochemical; details: for CHI (CHIIAM), Table S2: IAM chromatography, from mean of three retention times; for logkIAM: logkIAM = 0.045 CHIIAM + 0.42
Text: (§1) For this reason, the next step of our study concerns the characterization of investigated sulfonamide derivatives using a chromatographic approach. Generally, in RP-HPLC, the interactions between solutes and the stationary phase surface are mainly governed by lipophilicity. Consequently, RP-HPLC is the primary tool for assessing the lipophilicity of xenobiotics. […] Generally, the chemical character of target solutes determines interactions between the molecule and the stationary phase that may occur. Considering the large variety of RP-HPLC beds and differences in specific surface area, the energy of the sorbent’s intermolecular interactions between solutes and chemical structures, four different reversed-phase stationary phases and IAM column were investigated during this study. The lipophilicity index was presented as a logkw value, so the retention factor was extrapolated to the pure water after calculation using a protocol based on two gradient measurements and DryLab software.
(§2) Since the biomimetic chromatography experiments are carried out at physiological pH to compare obtained results, all chromatographic experiments have been carried out at pH 7.4. […] Consequently, the chromatography lipophilicity indices refer to the distribution coefficient (logD) values, which better reflect the lipophilicity of ionized substances under physiological conditions.
(§3) All HPLC experiments were carried out using a Prominence-1 LC-2030C 3D HPLC system (Shimadzu, Japan) equipped with a DAD detector and controlled by the LabSolution system (version 5.90 Shimadzu, Japan). The stock solutions of solutes were diluted to obtain 100 μg/mL concentrations, and the injected volume was 10 μL. During this study, six different columns in terms of chemical modification of stationary phases were used. Retention times (tR) of investigated sulfonamides were collected, and their detection in all systems was performed at the wavelength characteristic for each compound, summarized in Table S1. For all chromatography systems, analysis was carried out at 40 °C, except for IAM chromatography, in which oven temperature was set to 30 °C. The CHIIAM and CHI18 indices of the target sulfonamides derivatives were obtained using the protocol proposed by Valko and co-workers. C18 chromatography was performed on a Waters-C18 column (150 mm × 3.9 mm; 5.0 µm; Symmetry; USA), with a 1.5 mL/min flow rate. The mobile phase was ammonium acetate buffer (50 mM) at pH 7.4 and acetonitrile as an organic modifier. The linear gradient from 2 to 98% ACN was applied from 0 to 30 min. IAM chromatography was executed on an IAM.PC.DD2 column ([…] × 4.6 mm; 10.0 µm; Regis Technologies, Morton Grove, IL, USA) additionally equipped with an IAM guard column with the same flow rate of 1.5 mL/min. The mobile phase was sodium phosphate buffer (10 mM) at pH 7.4 and acetonitrile as the organic phase. The linear gradient from 0 to 85% was applied within 5.25 min.

[2] = C18 chromatography (RP-HPLC), chromatographic hydrophobicity index; type: physicochemical; details: for chromatographic logD: Waters Symmetry C18 column, CHI log D = 0.0525 CHIC18 − 1.467, pH 7.4; for CHIC18: pH 7.4, 40 °C, acetonitrile gradient
Text: as §1, §2, §3

[3] = C8 chromatography (RP-HPLC), logkw from two gradients with DryLab; type: physicochemical; details: for logkw, Table S4: C8 chromatography, pH 7.4, short and long gradient; for logkwC8: pH 7.4, 40 °C, retention factor extrapolated to 0% organic modifier
Text: as §1, §2
(§4) For C8, cyanopropyl, and phenyl chromatography, according to the assumption proposed by Snyder and co-workers, appropriate logkw values (i.e., the retention factor logk extrapolated to 0% organic modifier, as an alternative to logP) were obtained. […] Dwell volume for these HPLC systems was measured at 0.780 mL, whereas the obtained dead times for used HPLC columns were equal to 1.530 min, 1.252 min, and 2.335 min for C8, SB-CN, and UK-Phenyl, respectively. The mobile phase was ammonium acetate buffer (50 mM) at pH 7.4 and acetonitrile as an organic modifier in each system. C8 chromatography was performed on Unison UK-C8 column (150 × 2 mm; 3.0 µm. Imtakt; USA) with 0.3 mL/min flow rate. Analyses were carried out in linear gradient from 30 to 100% within 15 min in short gradient and 30 min in long gradient. The Agilent SB-CN column (150 × 4.6 mm; 3.5 µm; Zorbax; USA) was used for the cyanopropyl chromatography. The CN chromatography analyses were carried out in linear gradient from 20 to 100%, which was applied from 0 to 20 min in short gradient, and from 0 to 40 min in long gradient. The flow rate was 1.5 mL/min. The column Unison UK-Phenyl (150 × 2 mm; 3.0 µm; Imtakt; USA) was used to perform phenyl chromatography. The flow rate was set to 0.2 mL/min. The phenyl analyses were carried out in linear gradient from 40 to 100%, which was applied from 0 to 20 min in short gradient, and from 0 to 40 min in long gradient. Each HPLC analysis was run in triplicate; in Tables S2–S6, obtained retention times are listed, whereas representative chromatograms are shown in Figure 9.

[4] = Cyanopropyl (CN) chromatography, logkw from two gradients with DryLab; type: physicochemical; details: for logkw, Table S5: Cyanopropyl chromatography, pH 7.4, short and long gradient; for logkwCN: pH 7.4, 40 °C, retention factor extrapolated to 0% organic modifier
Text: as §1, §2, §4

[5] = Phenyl (Ph) chromatography, logkw from two gradients with DryLab; type: physicochemical; details: for logkw, Table S6: Phenyl chromatography, pH 7.4, short and long gradient; for logkwPh: pH 7.4, 40 °C, retention factor extrapolated to 0% organic modifier
Text: as §1, §2, §4

[6] = system: human colon cancer (HCT-116); design: method as in PMID 29772699, PMID 28122174, PMID 27338337, PMID 26506328; details: HCT-116 cell line; cited from earlier work

Row | Structure (SMILES) | CHI (CHIIAM), Table S2 ([1]; pH 7.4) | lipophilicity rank by the chromatographic experiments ([1]; based on the experimental data of all chromatographic systems, pH 7.4) | logkIAM ([1]; pH 7.4) | chromatographic logD [2] | CHIC18 [2] | logkw, Table S4 [3] | logkwC8 [3] | logkw, Table S5 [4] | logkwCN [4] | logkw, Table S6 [5] | logkwPh [5] | CHIIAM ([1]; pH 7.4, 30 °C, acetonitrile gradient) | pIC50 [6]
1 | Cc1ccc2cccnc2c1NS(=O)(=O)c1ccc(-n2cccc2)cc1 [Compound 3] | 42.0 |  | 2.31 | 3.51 | 94.80 | 4.593 | 4.59 | 2.966 | 2.97 | 5.556 | 5.56 |  | 4.72
2 | Cc1ccc2cccc(NS(=O)(=O)c3ccc(-n4cccc4)cc3)c2n1 [Compound 4] | 45.9 |  | 2.49 | 4.04 | 104.80 | 4.898 | 4.90 | 3.628 | 3.63 | 7.389 | 7.39 |  | 5.05
3 | O=S(=O)(Nc1cccc2nsnc12)c1ccc(-n2cccc2)cc1 [Compound 5] | 31.4 |  | 1.83 | 2.89 | 82.90 | 4.055 | 4.06 | 2.300 | 2.30 | 4.079 | 4.08 |  | 4.64
4 | O=S(=O)(Nc1ccc(Cl)cc1)c1ccc(-n2cccc2)cc1 [Compound 6] | 45.4 |  | 2.46 | 3.5 | 94.70 | 4.609 | 4.61 | 2.892 | 2.89 | 5.391 | 5.39 |  | 4.15
5 | Cc1cc(S(=O)(=O)Nc2nnc(C)c(=O)[nH]2)c(SCc2cccc3ccccc23)cc1Cl [Compound 9] | 31.4 |  | 1.83 | 2.33 | 72.30 | 3.692 | 3.69 | 1.850 | 1.85 | 2.880 | 2.88 |  | 4.07
6 | CC(=O)NS(=O)(=O)c1cc(C)c(Cl)cc1SCc1cccc2ccccc12 [Compound 26] | 30.6 |  | 1.80 | 2.95 | 84.10 | 3.655 | 3.66 | 1.763 | 1.76 | 2.870 | 2.87 |  | 
7 | Cc1cc(S(=O)(=O)NC(=O)C=Cc2ccccc2)c(SCc2cccc3ccccc23)cc1Cl [Compound 27] | 39.6 |  | 2.20 | 2.37 | 73.10 | 4.279 | 4.28 | 2.313 | 2.31 | 4.460 | 4.46 |  | 

Second part, led by results:

Row | CHI (CHIIAM), Table S2 ([1]; pH 7.4) | lipophilicity rank by the chromatographic experiments ([1]; based on the experimental data of all chromatographic systems, pH 7.4) | logkIAM ([1]; pH 7.4) | chromatographic logD [2] | CHIC18 [2] | logkw, Table S4 [3] | logkwC8 [3] | logkw, Table S5 [4] | logkwCN [4] | logkw, Table S6 [5] | logkwPh [5] | CHIIAM ([1]; pH 7.4, 30 °C, acetonitrile gradient) | Structure (SMILES) | pIC50 [6]
8 | 19.2 | least lipophilic | 1.28 | 1.51 | 56.70 | 2.980 | 2.98 | 1.580 | 1.58 | 2.620 | 2.62 |  | Cc1ccnc(NS(=O)(=O)c2ccc(-n3cccc3)cc2)n1 [Compound 1] | 4.34
9 | 45.0 |  | 2.45 | 3.65 | 97.50 | 4.682 | 4.68 | 4.040 | 4.04 | 6.221 | 6.22 |  | O=S(=O)(Nc1cccc2cccnc12)c1ccc(-n2cccc2)cc1 [Compound 2] | 6.00
10 | 24.3 |  | 1.51 | 1.88 | 63.80 | 3.300 | 3.30 | 1.780 | 1.78 | 2.810 | 2.81 |  | Cc1cc(C)nc(NS(=O)(=O)c2ccc(-n3cccc3)cc2)n1 [Compound 7] | 4.16
11 | 36.7 |  | 2.07 | 2.88 | 82.80 | 4.206 | 4.21 | 2.010 | 2.01 | 4.490 | 4.49 |  | Cc1cc(S(=O)(=O)Nc2nnc(-c3ccccc3)c(=O)[nH]2)c(SCc2ccc(C(F)(F)F)cc2)cc1Cl [Compound 8] | 4.10
12 | 39.1 |  | 2.18 | 2.96 | 84.30 | 4.211 | 4.21 | 2.251 | 2.25 | 4.193 | 4.19 |  | Cc1cc(S(=O)(=O)Nc2nnc(-c3ccccc3)c(=O)[nH]2)c(SCc2cccc3ccccc23)cc1Cl [Compound 10] | 4.05
13 | 35.5 |  | 2.02 | 2.75 | 80.30 | 4.074 | 4.07 | 2.130 | 2.13 | 3.824 | 3.82 |  | Cc1cc(S(=O)(=O)Nc2nnc(Cc3ccccc3)c(=O)[nH]2)c(SCc2cc3c(cc2Cl)OCO3)cc1Cl [Compound 11] | 4.06
14 |  |  | 2.00 | 2.7 | 79.30 | 4.070 | 4.07 | 2.162 | 2.16 | 3.897 | 3.90 | 35.20 | Cc1cc(S(=O)(=O)Nc2nnc(Cc3ccccc3[N+](=O)[O-])c(=O)[nH]2)c(SCc2cc3c(cc2Cl)OCO3)cc1Cl [Compound 12] | 4.06
15 | 37.1 |  | 2.09 | 2.62 | 77.90 | 4.030 | 4.03 | 2.037 | 2.04 | 3.532 | 3.53 |  | Cc1cc(S(=O)(=O)Nc2nncc(-c3cccc(F)c3)n2)c(SCc2ccccc2)cc1Cl [Compound 13] | 4.12
